These results are taken from patent US11236047B2 (ASTEX THERAPEUTICS LIMITED, priority 2017, dated 2022).

The subject of the assay is SJSA-1 cells. Description: Protocol B: SJSA-1 CellTiter-Glo luminescent cell viability assay. (In ATP-based viability assays light output follows the ATP content of the culture.)
[1] abbreviates: Homo sapiens, SJSA-1, read-out: SJSA1 IC50 (μM) (Protocol B), SJSA-1, Protocol B.
[2] abbreviates: read-out: SJSA1 IC50 (μM) (Protocol B), SJSA-1, Protocol B.
Where [3] appears, read: read-out: SJSA1 IC50, Protocol B, SJSA-1.

Broadly, the IC50 is the midpoint of a concentration-inhibition curve.

Molecules are shown by their SMILES. Read-outs that look alike come from different tables or passages of the source.

For the compound `CC(O)(c1cc(F)c2c(c1)C(=O)N(Cc1ccc(Cl)cn1)[C@@]2(OCCO)c1ccc(Cl)cc1)C1CCS(=O)(=O)CC1` (single isomer, unassigned) [Example 313], the concentration for half-maximal inhibition (IC50) under setting [1] is 0.95 µM.
`CC(O)(c1cc(F)c2c(c1)C(=O)N(Cc1ccc(Cl)cn1)[C@@]2(OCCO)c1ccc(Cl)cc1)C1CCS(=O)(=O)CC1` (single isomer, unassigned) [Example 314]: the “SJSA1 (Protocol B) % at stated concentration” value (SJSA-1, Protocol B, at 10 μM) is reported as 66% at 10.
Regarding `Cc1nc(C(C)(O)c2cc(F)c3c(c2)C(=O)N(Cc2ccc(Cl)cn2)[C@@]3(OCC2(O)CC2)c2ccc(Cl)cc2)cn1C` (single isomer, unassigned) [Example 324], the half-maximal inhibitory concentration (IC50) under setting [2] came out at 2.2 µM.
Same read-out and setting: in the case of `Cc1nc(C(C)(O)c2cc(F)c3c(c2)C(=O)N(Cc2ccc(Cl)cn2)[C@@]3(OCC2(O)CC2)c2ccc(Cl)cc2)cn1C` (single isomer, unassigned) [Example 325] it was 0.24 µM.
Consider `CCC(O)(c1cc(F)c2c(c1)C(=O)N(Cc1ccc(C#N)cn1)[C@@]2(OCC1(CO)CC1)c1ccc(Cl)cc1)c1cn(C)cn1` (single isomer, unassigned) [Example 337], for which the IC50 under setting [3] stood at 0.058 µM.
In the case of `Cn1cc(C(C)(O)c2cc(F)c3c(c2)C(=O)N(Cc2ncc(Cl)cn2)[C@@]3(OCC2(CO)CC2)c2ccc(Cl)cc2)cn1` (single isomer, unassigned) [Example 348], the 50% inhibitory concentration (IC50) under setting [2] was 0.27 µM.
Still for that read-out and setting: in the case of `Cn1cc(C(C)(O)c2cc(F)c3c(c2)C(=O)N(Cc2ncc(Cl)cn2)[C@@]3(OCC2(CO)CC2)c2ccc(Cl)cc2)cn1` (single isomer, unassigned) [Example 349] it was 0.028 µM; in that of `Cn1cc(C(C)(O)c2cc(F)c3c(c2)C(=O)N(Cc2ccc(C#N)cn2)[C@@]3(O[C@H]2C[C@@H](O)C2)c2ccc(Cl)cc2)cn1` (single isomer, unassigned) [Example 355, 6-{[1-(4-chlorophenyl)-7-fluoro-5-[1-hydroxy-1-(1-methyl-1H-pyrazol-4-yl)ethyl]-3-oxo-1-[cis-3-hydroxycyclobutoxy]-2,3-dihydro-1H-isoindol-2-yl]methyl}pyridine-3-carbonitrile], 4.7 µM; in that of `Cn1cc(C(C)(O)c2cc(F)c3c(c2)C(=O)N(Cc2ccc(C#N)cn2)[C@@]3(O[C@H]2C[C@@H](O)C2)c2ccc(Cl)cc2)cn1` (single isomer, unassigned) [Example 356, 6-{[1-(4-chlorophenyl)-7-fluoro-5-[1-hydroxy-1-(1-methyl-1H-pyrazol-4-yl)ethyl]-3-oxo-1-[cis-3-hydroxycyclobutoxy]-2,3-dihydro-1H-isoindol-2-yl]methyl}pyridine-3-carbonitrile], 0.96 µM.
In the case of `CCC(O)(c1cc(F)c2c(c1)C(=O)N(Cc1ncc(C#N)cn1)[C@@]2(O[C@H]1CCOC1)c1ccc(Cl)cc1)c1cn(C)cn1` (single isomer, unassigned) [Example 369], under setting [3], the IC50 worked out at 0.062 µM.
As for `CC(O)(c1cc(F)c2c(c1)C(=O)N(Cc1ccc(Cl)cn1)[C@@]2(OCC1(O)CC1)c1ccc(Cl)cc1)c1ncccn1` (single isomer, unassigned) [Example 396], the IC50 under setting [1] turned out to be 0.28 µM.
Still for that read-out and setting: the value for `CC(O)(c1cc(F)c2c(c1)C(=O)N(Cc1ncc(Cl)cn1)[C@@]2(OCC1(O)CC1)c1ccc(Cl)cc1)C1CCS(=O)(=O)CC1` (single isomer, unassigned) [Example 397] was 2.5 µM.
In the case of `CC(O)(c1cc(F)c2c(c1)C(=O)N(Cc1ncc(Cl)cn1)[C@@]2(OCC1(C(N)=O)CC1)c1ccc(Cl)cc1)C1CCC1` (single isomer, unassigned) [Example 403], the 50% inhibitory concentration (IC50) under setting [2] is 1.2 µM.
Take `CC(O)(c1cc(F)c2c(c1)C(=O)N(Cc1ncc(Cl)cn1)[C@@]2(OCC1(C(N)=O)CC1)c1ccc(Cl)cc1)C1CCC1` (single isomer, unassigned) [Example 404]: the IC50 under setting [2] was 0.095 µM.
On the same count and under the same terms, in the case of `CC(O)(c1cc(F)c2c(c1)C(=O)N(Cc1ccc(C#N)cn1)[C@@]2(OCCO)c1ccc(Cl)cc1)C1CCC1` (single isomer, unassigned) [Example 405] it was 0.63 µM; in that of `CC(O)(c1cc(F)c2c(c1)C(=O)N(Cc1ccc(C#N)cn1)[C@@]2(OCCO)c1ccc(Cl)cc1)C1CCC1` (single isomer, unassigned) [Example 406], 3.9 µM.
For the compound `CCC(O)(c1cc(F)c2c(c1)C(=O)N(Cc1ncc(C#N)cn1)[C@@]2(OC[C@H]1C[C@H](O)C1)c1ccc(Cl)cc1)c1cn(C)cn1` (single isomer, unassigned) [Example 484], under setting [3], the half-inhibitory concentration (IC50) amounted to 4.9 µM.
Same read-out and setting: in the case of `CCC(O)(CN1CCN(C)CC1)c1cc(F)c2c(c1)C(=O)N(Cc1ncc(Cl)cn1)[C@@]2(OCCO)c1ccc(Cl)cc1` (single isomer, unassigned) [Example 532] it was 0.14 µM.
Same read-out and setting: the value for `CCC(O)(CN1CCNCC1)c1cc(F)c2c(c1)C(=O)N(Cc1ncc(Cl)cn1)[C@@]2(OCC1(C#N)CC1)c1ccc(Cl)cc1` (single isomer, unassigned) [Example 537] was 0.76 µM.
In the case of `CO[C@]1(c2ccc(Cl)cc2)c2c(F)cc(C(C)(O)c3cn(C)c(C)n3)cc2C(=O)N1Cc1ccc(Cl)cn1` (stereo partly drawn) [Example 161, (3R)-3-(4-Chlorophenyl)-2-[(5-chloropyridin-2-yl)methyl]-6-[1-(1,2-dimethyl-1H-imidazol-4-yl)-1-hydroxyethyl]-4-fluoro-3-methoxy-2,3-dihydro-1H-isoindol-1-one], under setting [2], the half-maximal inhibitory concentration (IC50) was 4.3 µM.
In the case of `CO[C@]1(c2ccc(Cl)cc2)c2c(F)cc(C(C)(O)c3cnn(C4CN(C(C)=O)C4)c3)cc2C(=O)N1Cc1ccc(Cl)cn1` (stereo partly drawn) [Example 182, (3R)-6-{1-[1-(1-Acetylazetidin-3-yl)-1H-pyrazol-4-yl]-1-hydroxyethyl}-3-(4-chlorophenyl)-2-[(5-chloropyridin-2-yl)methyl]-4-fluoro-3-methoxy-2,3-dihydro-1H-isoindol-1-one], under setting [1], the half-maximal inhibitory concentration (IC50) was 0.88 µM.
As for `CO[C@]1(c2ccc(Cl)cc2)c2c(F)cc(C(C)(O)c3cnn(CCN(C)C)c3)cc2C(=O)N1Cc1ccc(Cl)cn1` (stereo partly drawn) [Example 191, (3R)-3-(4-Chlorophenyl)-2-[(5-chloropyridin-2-yl)methyl]-6-(1-{1-[2-(dimethylamino)ethyl]-1H-pyrazol-4-yl}-1-hydroxyethyl)-4-fluoro-3-methoxy-2,3-dihydro-1H-isoindol-1-one], the concentration for half-maximal inhibition (IC50) under setting [1] was 2.5 µM.
`CO[C@]1(c2ccc(Cl)cc2)c2c(F)cc(C(C)(O)c3cnn(CCN(C)C)c3)cc2C(=O)N1Cc1ccc(Cl)cn1` (stereo partly drawn) [Example 192, (3R)-3-(4-Chlorophenyl)-2-[(5-chloropyridin-2-yl)methyl]-6-(1-{1-[2-(dimethylamino)ethyl]-1H-pyrazol-4-yl}-1-hydroxyethyl)-4-fluoro-3-methoxy-2,3-dihydro-1H-isoindol-1-one]: the IC50 under setting [2] worked out at 1.4 µM.
Turning to `Cn1cc(C(C)(O)c2cc(F)c3c(c2)C(=O)N(Cc2ccc(F)cn2)[C@@]3(OCC2(C(N)=O)CC2)c2ccc(Cl)cc2)cn1` (stereo partly drawn) [Example 209, 1-({[(1R)-1-(4-chlorophenyl)-7-fluoro-2-[(5-fluoropyridin-2-yl)methyl]-5-[1-hydroxy-1-(1-methyl-1H-pyrazol-4-yl)ethyl]-3-oxo-2,3-dihydro-1H-isoindol-1-yl]oxy}methyl)cyclopropane-1-carboxamide], the IC50 under setting [1] worked out at 0.45 µM.
With `Cn1cc(C(C)(O)c2cc(F)c3c(c2)C(=O)N(Cc2ccc(C#N)cn2)[C@@]3(OCC2(C#N)CC2)c2ccc(Cl)cc2)cn1` (stereo partly drawn) [Example 211, 6-{[(1R)-1-(4-chlorophenyl)-1-[(1-cyanocyclopropyl)methoxy]-7-fluoro-5-[1-hydroxy-1-(1-methyl-1H-pyrazol-4-yl)ethyl]-3-oxo-2,3-dihydro-1H-isoindol-2-yl]methyl}pyridine-3-carbonitrile], under setting [1], the half-maximal inhibitory concentration (IC50) amounted to 0.36 µM.
In the case of `Cn1cc(C(C)(O)c2cc(F)c3c(c2)C(=O)N(Cc2ccc(Cl)cn2)[C@@]3(OCCO)c2ccc(Cl)cc2)cn1` (stereo partly drawn) [Example 213, (3R)-3-(4-chlorophenyl)-2-[(5-chloropyridin-2-yl)methyl]-4-fluoro-6-[1-hydroxy-1-(1-methyl-1H-pyrazol-4-yl)ethyl]-3-(2-hydroxyethoxy)-2,3-dihydro-1H-isoindol-1-one], the IC50 under setting [1] came out at 0.25 µM.
The same measure, in the same setting: the value for `Cn1cc(C(C)(O)c2cc(F)c3c(c2)C(=O)N(Cc2ncc(Cl)cn2)[C@@]3(OCC2(C(N)=O)CC2)c2ccc(Cl)cc2)cn1` (stereo partly drawn) [Example 214, 1-({[(1R)-1-(4-chlorophenyl)-2-[(5-chloropyrimidin-2-yl)methyl]-7-fluoro-5-[1-hydroxy-1-(1-methyl-1H-pyrazol-4-yl)ethyl]-3-oxo-2,3-dihydro-1H-isoindol-1-yl]oxy}methyl)cyclopropane-1-carboxamide] was 0.22 µM.
On the same count and under the same terms, the value for `COc1ccc(CN2C(=O)c3cc(C(C)(O)c4cnn(C)c4)cc(F)c3[C@]2(OCC2(C(N)=O)CC2)c2ccc(Cl)cc2)cn1` (stereo partly drawn) [Example 216, 1-({[(1R)-1-(4-chlorophenyl)-7-fluoro-5-[1-hydroxy-1-(1-methyl-1H-pyrazol-4-yl)ethyl]-2-[(6-methoxypyridin-3-yl)methyl]-3-oxo-2,3-dihydro-1H-isoindol-1-yl]oxy}methyl)cyclopropane-1-carboxamide] was 0.28 µM.
On to `COc1ccc(CN2C(=O)c3cc(C(C)(O)c4cnn(C)c4)cc(F)c3[C@]2(OCC2(CO)CC2)c2ccc(Cl)cc2)cn1` (stereo partly drawn) [Example 219, (3R)-3-(4-chlorophenyl)-4-fluoro-6-[1-hydroxy-1-(1-methyl-1H-pyrazol-4-yl)ethyl]-3-{[1-(hydroxymethyl)cyclopropyl]methoxy}-2-[(6-methoxypyridin-3-yl)methyl]-2,3-dihydro-1H-isoindol-1-one], for which the half-inhibitory concentration (IC50) under setting [2] is 0.11 µM.
The same measure, in the same setting: the value for `COc1ccc(CN2C(=O)c3cc(C(C)(O)c4cnn(C)c4)cc(F)c3[C@]2(OCC2(CO)CC2)c2ccc(Cl)cc2)nc1` (stereo partly drawn) [Example 224, (3R)-3-(4-chlorophenyl)-4-fluoro-6-[1-hydroxy-1-(1-methyl-1H-pyrazol-4-yl)ethyl]-3-{[1-(hydroxymethyl)cyclopropyl]methoxy}-2-[(5-methoxypyridin-2-yl)methyl]-2,3-dihydro-1H-isoindol-1-one] was 0.12 µM.
